# Measured values published in US20090074815A1, “Immunomodulator Compounds as Vaccine Enhancers” (SCICLONE PHARMACEUTICALS, INC., priority 2005, published 2009).
# Test system: IL-2 production by OvA-stimulated splenocytes
# Test: OvA-stimulated production of IL-2 by splenocytes of OvA-immunized mice
# [1] = OvA/Alum, 1.0 μg/kg i/p, OvA 1 μg/ml
# [2] = OvA/Alum, 1.0 μg/kg i/p, OvA 10 μg/ml
# [3] = OvA/Alum, 1.0 μg/kg i/p, OvA 25 μg/ml
# [4] = OvA/Alum, 1.0 μg/kg i/p, OvA 100 μg/ml
# [5] = OvA/FA, 0.1 μg/kg i/p, OvA 1 μg/ml
# [6] = OvA/FA, 0.1 μg/kg i/p, OvA 10 μg/ml
# [7] = OvA/FA, 0.1 μg/kg i/p, OvA 25 μg/ml
# [8] = OvA/FA, 0.1 μg/kg i/p, OvA 100 μg/ml
# [9] = OvA/FA, 1.0 μg/kg i/p, OvA 1 μg/ml
# [10] = OvA/FA, 1.0 μg/kg i/p, OvA 10 μg/ml
# [11] = OvA/FA, 1.0 μg/kg i/p, OvA 25 μg/ml
# [12] = OvA/FA, 1.0 μg/kg i/p, OvA 100 μg/ml
# Procedure: The OvA was administered subcutaneously to the crest in a volume of 200 μl. Mice were immunized on day 1 with OvA in complete Freund's adjuvant (CFA; Sigma) and on day 15 with the antigen in incomplete Freund's adjuvant (IFA; Sigma). The immune response was analyzed on day 29. Mice were also immunized with 10 μg/mouse of OvA using Alum as an adjuvant.
# Thymuses and spleens from mice of each treatment group were pooled, and then minced with scissors. The minced tissues were suspended in sterile PBS to form cell suspensions, filtered through a double gauze layer and centrifuged. Cells were washed twice with PBS, re-suspended in RPMI-1640 (Sigma) with 2.0 mM of L-glutamine, 50 μM of mercaptoethanol, and 10 μg/ml of gentamycin (complete medium); and cell counts were made. (The splenocyte suspension was washed with a 0.86% solution of NH4Cl to pre-lyse erthrocytes.)
# Assessment of Mitogen- and Antigen-Induced Production of Cytokines: Thymic cells (1×10^6/well) in complete medium with 2% FCS were stimulated with ConA (0, 1, and 2 μg/ml). Splenocytes (1×10^6/well) in complete medium with 5% FCS were stimulated with ConA (0, 1, and 5 μg/ml) and with OvA (0-100 μg/ml). […] Supernatants from OvA-stimulated cultures were collected after 72 hours. Supernatants from both cultures were frozen, and kept at 20° C. Concentrations of IL-2, IL-4, IL-10, IL-12R40 and IFNγ in the supernatants were determined by solid-phase EIA with EIA Expansion Kits, available from BD Biosciences (formerly Pharmingen), in accordance with the manufacturer's instructions.
smiles,measurement,setting,value
"N[C@H](CCC(=O)N[C@@H](Cc1c[nH]c2ccccc12)C(=O)O)C(=O)O [SCV-07, γ-D-glutamyl-L-tryptophan]",Production of IL-2 by splenocytes,"OvA/Alum, 0.1 μg/kg per os, OvA 0 μg/ml",172.9 pg/mL
same,Production of IL-2 by splenocytes,"OvA/Alum, 0.1 μg/kg per os, OvA 1 μg/ml",163.0 pg/mL
same,Production of IL-2 by splenocytes,"OvA/Alum, 0.1 μg/kg per os, OvA 10 μg/ml",124.5 pg/mL
same,Production of IL-2 by splenocytes,"OvA/Alum, 0.1 μg/kg per os, OvA 25 μg/ml",255.5 pg/mL
same,Production of IL-2 by splenocytes,"OvA/Alum, 0.1 μg/kg per os, OvA 100 μg/ml",90.8 pg/mL
same,Production of IL-2 by splenocytes,"OvA/Alum, 1.0 μg/kg i/p, OvA 0 μg/ml",113.4 pg/mL
same,Production of IL-2 by splenocytes,[1],173.7 pg/mL
same,"Production of IL-2 by splenocytes, % (% of control)",[1],153.2%
same,Production of IL-2 by splenocytes,[2],167.9 pg/mL
same,"Production of IL-2 by splenocytes, % (% of control)",[2],148.1%
same,Production of IL-2 by splenocytes,[3],353.8 pg/mL
same,"Production of IL-2 by splenocytes, % (% of control)",[3],312.0%
same,Production of IL-2 by splenocytes,[4],205.8 pg/mL
same,"Production of IL-2 by splenocytes, % (% of control)",[4],181.5%
same,Production of IL-2 by splenocytes,"OvA/Alum, 1.0 μg/kg per os, OvA 0 μg/ml",160.9 pg/mL
same,Production of IL-2 by splenocytes,"OvA/Alum, 1.0 μg/kg per os, OvA 1 μg/ml",92.8 pg/mL
same,Production of IL-2 by splenocytes,"OvA/Alum, 1.0 μg/kg per os, OvA 10 μg/ml",181.9 pg/mL
same,Production of IL-2 by splenocytes,"OvA/Alum, 1.0 μg/kg per os, OvA 25 μg/ml",121.3 pg/mL
same,Production of IL-2 by splenocytes,"OvA/Alum, 1.0 μg/kg per os, OvA 100 μg/ml",120.2 pg/mL
same,Production of IL-2 by splenocytes,"OvA/Alum, 10.0 μg/kg per os, OvA 0 μg/ml",289.4 pg/mL
same,Production of IL-2 by splenocytes,"OvA/Alum, 10.0 μg/kg per os, OvA 1 μg/ml",551.9 pg/mL
same,Production of IL-2 by splenocytes,"OvA/Alum, 10.0 μg/kg per os, OvA 10 μg/ml",252.5 pg/mL
same,Production of IL-2 by splenocytes,"OvA/Alum, 10.0 μg/kg per os, OvA 25 μg/ml",218.7 pg/mL
same,Production of IL-2 by splenocytes,"OvA/Alum, 10.0 μg/kg per os, OvA 100 μg/ml",300.8 pg/mL
same,Production of IL-2 by splenocytes,"OvA/FA, 0.1 μg/kg i/p, OvA 0 μg/ml",78.4 pg/mL
same,Production of IL-2 by splenocytes,[5],10.2 pg/mL
same,"Production of IL-2 by splenocytes, % (% of control)",[5],13.0%
same,Production of IL-2 by splenocytes,[6],72.7 pg/mL
same,"Production of IL-2 by splenocytes, % (% of control)",[6],92.7%
same,Production of IL-2 by splenocytes,[7],85.8 pg/mL
same,"Production of IL-2 by splenocytes, % (% of control)",[7],109.4%
same,Production of IL-2 by splenocytes,[8],95.5 pg/mL
same,"Production of IL-2 by splenocytes, % (% of control)",[8],121.8%
same,Production of IL-2 by splenocytes,"OvA/FA, 0.1 μg/kg per os, OvA 0 μg/ml",211.8 pg/mL
same,Production of IL-2 by splenocytes,"OvA/FA, 0.1 μg/kg per os, OvA 1 μg/ml",68.7 pg/mL
same,Production of IL-2 by splenocytes,"OvA/FA, 0.1 μg/kg per os, OvA 10 μg/ml",92.9 pg/mL
same,Production of IL-2 by splenocytes,"OvA/FA, 0.1 μg/kg per os, OvA 25 μg/ml",252.5 pg/mL
same,Production of IL-2 by splenocytes,"OvA/FA, 0.1 μg/kg per os, OvA 100 μg/ml",94.8 pg/mL
same,Production of IL-2 by splenocytes,"OvA/FA, 1.0 μg/kg i/p, OvA 0 μg/ml",147.7 pg/mL
same,Production of IL-2 by splenocytes,[9],116.5 pg/mL
same,"Production of IL-2 by splenocytes, % (% of control)",[9],78.9%
same,Production of IL-2 by splenocytes,[10],317.3 pg/mL
same,"Production of IL-2 by splenocytes, % (% of control)",[10],214.8%
same,Production of IL-2 by splenocytes,[11],363.1 pg/mL
same,"Production of IL-2 by splenocytes, % (% of control)",[11],245.8%
same,Production of IL-2 by splenocytes,[12],564.4 pg/mL
same,"Production of IL-2 by splenocytes, % (% of control)",[12],382.1%
same,Production of IL-2 by splenocytes,"OvA/FA, 1.0 μg/kg per os, OvA 0 μg/ml",122.4 pg/mL
same,Production of IL-2 by splenocytes,"OvA/FA, 1.0 μg/kg per os, OvA 1 μg/ml",82.7 pg/mL
same,Production of IL-2 by splenocytes,"OvA/FA, 1.0 μg/kg per os, OvA 10 μg/ml",304.2 pg/mL
same,Production of IL-2 by splenocytes,"OvA/FA, 1.0 μg/kg per os, OvA 25 μg/ml",152.9 pg/mL
same,Production of IL-2 by splenocytes,"OvA/FA, 1.0 μg/kg per os, OvA 100 μg/ml",282.8 pg/mL
same,Production of IL-2 by splenocytes,"OvA/FA, 10.0 μg/kg per os, OvA 0 μg/ml",163 pg/mL
same,Production of IL-2 by splenocytes,"OvA/FA, 10.0 μg/kg per os, OvA 1 μg/ml",80.2 pg/mL
same,Production of IL-2 by splenocytes,"OvA/FA, 10.0 μg/kg per os, OvA 10 μg/ml",305.4 pg/mL
same,Production of IL-2 by splenocytes,"OvA/FA, 10.0 μg/kg per os, OvA 25 μg/ml",287.2 pg/mL
same,Production of IL-2 by splenocytes,"OvA/FA, 10.0 μg/kg per os, OvA 100 μg/ml",478.2 pg/mL
